Results from patent US20260284214A1, “EXATECAN DERIVATIVE AND ANTIBODY-DRUG CONJUGATE THEREOF” (priority 2023, published 2026).

Experiments:
[1] = test system: FaDu cells; test: Cell inhibitory activity experiment of cytotoxic drug (CellTiter-Glo, 72 hours); assay type: cell-based, human; conditions: Homo sapiens
Protocol: (§1) Human pancreatic adenocarcinoma cells BxPC-3 (ATCC, article number: CRL-1687) and human pharyngeal squamous cell carcinoma cells FaDu (ATCC, article number: HTB-43) were washed with PBS, then the cells were digested with 0.25% Trypsin-EDTA trypsin for about 3 minutes, and the digestion was terminated with a complete cell culture medium. The cells were centrifuged at 1000 rpm for 5 minutes, the supernatant was discarded, and the cells were resuspended with a complete cell culture medium, counted by a cell counter, and adjusted to a required density. Each well was added with 50 μL of the cell suspension according to 3000 cells per well, and the cell plate was placed into a 5% CO2 cell incubator at 37° C. to incubate the cells for 12-16 hours.
(§2) The cell plate was taken out of the incubator to observe a cell adhesion state, and after cell adhesion, each well was added with 50 μL of the sample (starting from 10 μM, diluted 5 times, 9 concentrations), shaken gently, and then placed into an incubator to incubate the cells for 72 hours. Each well was added with a Cell Titer-GLO™ (Promega, article number: G7572) working solution according to 100 μL/well and shaken gently to lyse the cells, and the plate was read on a microplate reader.
(§3) Data analysis: a graph was made by GraphPad Prism 7.0 software with a Log value of a sample concentration as an abscissa and Cytotoxicity % as an ordinate, and data were subjected to Nonlinear regression (curve fit) analysis to obtain an IC50 value of each compound.

[2] = test system: BxPC-3 cells; test: as above; assay type: cell-based, human; conditions: Homo sapiens
Protocol: as §1, §2, §3

SMILES | IC50 [1] | IC50 [2]
CC[C@@]1(O)C(=O)OCc2c1cc1n(c2=O)Cc2c-1nc1cc(F)c(C)c3c1c2[C@@H](NC(=O)N(CC#N)CCO)CC3 [Example 1, 1-(cyanomethyl)-3-((1S,9S)-9-ethyl-5-fluoro-9-hydroxy-4-methyl-10,13-dioxo-2,3,9,10,13,15-hexahydro-1H,12H-benzo[de]pyrano[3′,4′:6,7]indolizino[1,2-b]quinoline-1-yl)-1-(2-hydroxyethyl)urea] | 6.68 nM | 8.27 nM
CC[C@@]1(O)C(=O)OCc2c1cc1n(c2=O)Cc2c-1nc1cc(F)c(C)c3c1c2[C@@H](NC(=O)N1C[C@@H](O)CO1)CC3 [Example 5, (R)—N-((1S,9S)-9-ethyl-5-fluoro-9-hydroxy-4-methyl-10,13-dioxo-2,3,9,10,13,15-hexahydro-1H,12H-benzo[de]pyrano[3′,4′:6,7]indolizino[1,2-b]quinolin-1-yl)-4-hydroxyisoxazoline-2-carboxamide] | 0.75 nM | < 0.1 nM
CC[C@@]1(O)C(=O)OCc2c1cc1n(c2=O)Cc2c-1nc1cc(F)c(C)c3c1c2[C@@H](NC(=O)N1CC[C@@H](O)C1)CC3 [Example 14, (R)—N-((1S,9S)-9-ethyl-5-fluoro-9-hydroxy-4-methyl-10,13-dioxo-2,3,9,10,13,15-hexahydro-1H,12H-benzo[de]pyrano[3′,4′:6,7]indolizino[1,2-b]quinolin-1-yl)-3-hydroxypyrrolidine-1-carboxamide] | 57.8 nM | 6.27 nM
CC[C@@]1(O)C(=O)OCc2c1cc1n(c2=O)Cc2c-1nc1cc(F)c(C)c3c1c2[C@@H](NC(=O)N1CC(O)C1)CC3 [Example 10, N-((1S,9S)-9-ethyl-5-fluoro-9-hydroxy-4-methyl-10,13-dioxo-2,3,9,10,13,15-hexahydro-1H,12H-benzo[de]pyrano[3′,4′:6,7]indolizino[1,2-b]quinolin-1-yl)-3-hydroxyazetidine-1-carboxamide] | 6.04 nM | 5.1 nM
CC[C@@]1(O)C(=O)OCc2c1cc1n(c2=O)Cc2c-1nc1cc(F)c(C)c3c1c2[C@@H](NC(=O)N1C[C@H](O)CO1)CC3 [Example 4, (S)—N-((1S,9S)-9-ethyl-5-fluoro-9-hydroxy-4-methyl-10,13-dioxo-2,3,9,10,13,15-hexahydro-1H,12H-benzo[de]pyrano[3′,4′:6,7]indolizino[1,2-b]quinolin-1-yl)-4-hydroxyisoxazolidine-2-carboxamide] | 2.95 nM | 1.84 nM
CC[C@@]1(O)C(=O)OCc2c1cc1n(c2=O)Cc2c-1nc1cc(F)c(C)c3c1c2[C@@H](NC(=O)O[C@H]1C[C@H](N)C1)CC3 [Example 20, (1R,3S)-3-aminocyclobutyl((1S,9S)-9-ethyl-5-fluoro-9-hydroxy-4-methyl-10,13-dioxo-2,3,9,10,13,15-hexahydro-1H,12H-benzo[de]pyrano[3′,4′:6,7]indolizino[1,2-b]quinolin-1-yl)carbamate] | 2 nM | 3.05 nM
CC[C@@]1(O)C(=O)OCc2c1cc1n(c2=O)Cc2c-1nc1cc(F)c(C)c3c1c2[C@@H](NC(=O)N[C@H]1C[C@@H](N)C1)CC3 [Example 16] | 4.33 nM | 7.93 nM
CC[C@@]1(O)C(=O)OCc2c1cc1n(c2=O)Cc2c-1nc1cc(F)c(C)c3c1c2[C@@H](NC(=O)N1CC(N)C1)CC3 [Example 15, 3-amino-N-((1S,9S)-9-ethyl-5-fluoro-9-hydroxy-4-methyl-10,13-dioxo-2,3,9,10,13,15-hexahydro-1H,12H-benzo[de]pyrano[3′,4′:6,7]indolizino[1,2-b]quinolin-1-yl) azetidine-1-carboxamide] | 11.4 nM | 20.5 nM
CC[C@@]1(O)C(=O)OCc2c1cc1n(c2=O)Cc2c-1nc1cc(F)c(C)c3c1c2[C@@H](NC(=O)O[C@H]1C[C@@H](N)C1)CC3 [Example 19, (1S,3R)-3-aminocyclobutyl((1S,9S)-9-ethyl-5-fluoro-9-hydroxy-4-methyl-10,13-dioxo-2,3,9,10,13,15-hexahydro-1H,12H-benzo[de]pyrano[3′,4′:6,7]indolizino[1,2-b]quinolin-1-yl)carbamate] | 3.97 nM | 3.69 nM
CC[C@@]1(O)C(=O)OCc2c1cc1n(c2=O)Cc2c-1nc1cc(F)c(C)c3c1c2[C@@H](NC(=O)N1CC[C@H](O)C1)CC3 [Example 13, (S)—N-((1S,9S)-9-ethyl-5-fluoro-9-hydroxy-4-methyl-10,13-dioxo-2,3,9,10,13,15-hexahydro-1H,12H-benzo[de]pyrano[3′,4′:6,7]indolizino[1,2-b]quinolin-1-yl)-3-hydroxypyrrolidine-1-carboxamide] | 36 nM | 2.49 nM
CC[C@@]1(O)C(=O)OCc2c1cc1n(c2=O)Cc2c-1nc1cc(F)c(C)c3c1c2[C@@H](NC(=O)N[C@H]1C[C@H](O)C1)CC3 [Example 12, 1-((1S,9S)-9-ethyl-5-fluoro-9-hydroxy-4-methyl-10,13-dioxo-2,3,9,10,13,15-hexahydro-1H,12H-benzo[de]pyrano[3′,4′:6,7]indolizino[1,2-b]quinolin-1-yl)-3-((1r,3S)-3-hydroxycyclobutyl)urea] | 42 nM | 5.77 nM
CC[C@@]1(O)C(=O)OCc2c1cc1n(c2=O)Cc2c-1nc1cc(F)c(C)c3c1c2[C@@H](NC(=O)N(CCO)OC)CC3 [Example 8, 3-((1S,9S)-9-ethyl-5-fluoro-9-hydroxy-4-methyl-10,13-dioxo-2,3,9,10,13,15-hexahydro-1H,12H-benzo[de]pyrano[3′,4′:6,7]indolizino[1,2-b]quinolin-1-yl)-1-(2-hydroxyethyl)-1-methoxyurea] | 0.13 nM | 1.45 nM
CC[C@@]1(O)C(=O)OCc2c1cc1n(c2=O)Cc2c-1nc1cc(F)c(C)c3c1c2[C@@H](NC(=O)N(C#N)CCO)CC3 [Example 9, 1-cyano-3-((1S,9S)-9-ethyl-5-fluoro-9-hydroxy-4-methyl-10,13-dioxo-2,3,9,10,13,15-hexahydro-1H,12H-benzo[de]pyrano[3′,4′:6,7]indolizino[1,2-b]quinolin-1-yl)-1-(2-hydroxyethyl)urea] | 2.34 nM | 2.15 nM
CC[C@@]1(O)C(=O)OCc2c1cc1n(c2=O)Cc2c-1nc1cc(F)c(C)c3c1c2[C@@H](NC(=O)NC1CNC1)CC3 [Example 18, 1-(azetidin-3-yl)-3-((1S,9S)-9-ethyl-5-fluoro-9-hydroxy-4-methyl-10,13-dioxo-2,3,9,10,13,15-hexahydro-1H,12H-benzo[de]pyrano[3′,4′:6,7]indolizino[1,2-b]quinolin-1-yl)urea] | 16.9 nM | 40.8 nM
CC[C@@]1(O)C(=O)OCc2c1cc1n(c2=O)Cc2c-1nc1cc(F)c(C)c3c1c2[C@@H](NC(=O)N[C@H]1C[C@H](N)C1)CC3 [Example 17] | 2.26 nM | 4.04 nM
CC[C@@]1(O)C(=O)OCc2c1cc1n(c2=O)Cc2c-1nc1cc(F)c(C)c3c1c2[C@@H](NC(=O)N(O)CCO)CC3 [Example 7, 3-((1S,9S)-9-ethyl-5-fluoro-9-hydroxy-4-methyl-10,13-dioxo-2,3,9,10,13,15-hexahydro-1H,12H-benzo[de]pyrano[3′,4′:6,7]indolizino[1,2-b]quinolin-1-yl)-1-hydroxy-1-(2-hydroxyethyl)urea] | < 0.1 nM | 0.76 nM
CC[C@@]1(O)C(=O)OCc2c1cc1n(c2=O)Cc2c-1nc1cc(F)c(C)c3c1c2[C@@H](NC(=O)OC1CNC1)CC3 [Example 21, azetidine-3-yl((1S,9S)-9-ethyl-5-fluoro-9-hydroxy-4-methyl-10,13-dioxo-2,3,9,10,13,15-hexahydro-1H,12H-benzo[de]pyrano[3′,4′:6,7]indolizino[1,2-b]quinolin-1-yl)carbamate] | 19.8 nM | 29.2 nM
